The values that follow come from ChEMBL document CHEMBL5352441, “Modulation of FLT3-ITD and CDK9 in acute myeloid leukaemia cells by novel proteolysis targeting chimera (PROTAC)” (2022).

Calls of active or inactive are those of the source. The rule behind the calls is not given here.

Experiment [1] concerns MV4-11. The experiment can be described thus: Induction of cell cycle arrest in human MV4-11 cells assessed as accumulation of cells at G2/M phase at 2.5 uM incubated for 16 hrs by PI staining based flow cytometry analysis (reference value: 10.86%). It is filed as functional. On the technique in general: Flow cytometry measures light scatter and fluorescence of single cells or particles in a stream.

Experiment [2] relates to MV4-11. The experiment can be described thus: Antiproliferative activity against CRBN-deficient human MV4-11 cells assessed as cell growth inhibition incubated for 72 hrs by resazurin dye based fluorescence analysis. It is filed as functional. Background: Alamar Blue is a resazurin reagent that responds to reducing activity.
Experiment [3] concerns MV4-11. The experiment can be described thus: Induction of apoptosis in CRBN-deficient human MV4-11 cells assessed as activation of caspase 3 at 0.004 to 25 uM incubated for 16 hrs in presence of Ac-DEVD-AMC by fluorescence microplate reader analysis. It is filed as functional, cell-based. As to conditions: dose 0.004-25 µM.
Experiment [4] relates to MV4-11. The experiment can be described thus: Induction of cell cycle arrest in CRBN-deficient human MV4-11 cells assessed as accumulation of cells at sub-G1 phase at 0.5 uM incubated for 16 hrs by PI staining based flow cytometry analysis (reference value: 12.52%). Type of experiment: functional.
Experiment [5] concerns MV4-11. The experiment can be described thus: Induction of cell cycle arrest in human MV4-11 cells assessed as accumulation of cells at G1 phase at 2.5 uM incubated for 16 hrs by PI staining based flow cytometry analysis (reference value: 62.97%). It is filed as functional.
For experiment [6], the target named is Protein cereblon/Cyclin-dependent kinase 9 (Homo sapiens) (UniProt P50750+Q96SW2). The experiment can be described thus: PROTAC activity at CRBN/CDK9 in human MV4-11 cells harboring FLT3-ITD mutation assessed as induction of protein degradation incubated for 16 hrs by immunoblot analysis. Type of experiment: cell-based. As to conditions: dose 0.004-2.5 µM. A general note: Immunoblotting shows a protein as a band on a membrane.

Experiment [7] has as its system MV4-11. The experiment can be described thus: Induction of cell cycle arrest in CRBN-deficient human MV4-11 cells assessed as accumulation of cells at G1 phase at 0.02 uM incubated for 16 hrs by PI staining based flow cytometry analysis (reference value: 54.05%). Type of experiment: functional.
Experiment [8] has as its system MV4-11. The experiment can be described thus: Downregulation of HOXA9 gene expression in human MV4-11 cells incubated for 4 hrs by qRT-PCR analysis. It is filed as functional, cell-based. As to conditions: dose 0.004-2.5 µM.
Experiment [9] has as its system MV4-11. The experiment can be described thus: Induction of cell cycle arrest in CRBN-deficient human MV4-11 cells assessed as accumulation of cells at sub-G1 phase at 0.004 uM incubated for 16 hrs by PI staining based flow cytometry analysis (reference value: 12.52%). It is filed as functional.
Experiment [10] relates to CCRF-CEM. The experiment can be described thus: Antiproliferative activity against human CEM cells assessed as cell growth inhibition incubated for 72 hrs by resazurin dye based fluorescence analysis. It is filed as functional.
Experiment [11] concerns MV4-11. The experiment can be described thus: Induction of cell cycle arrest in CRBN-deficient human MV4-11 cells assessed as accumulation of cells at G2/M phase at 0.1 uM incubated for 16 hrs by PI staining based flow cytometry analysis (reference value: 9.34%). Type of experiment: functional.
Experiment [12] relates to MV4-11. The experiment can be described thus: Antiproliferative activity against human MV4-11 cells harboring FLT3-ITD mutation assessed as cell growth inhibition incubated for 72 hrs by resazurin dye based fluorescence analysis. Type of experiment: functional.
The test system of experiment [13] is MV4-11. The experiment can be described thus: Induction of cell cycle arrest in CRBN-deficient human MV4-11 cells assessed as accumulation of cells at G1 phase at 0.004 uM incubated for 16 hrs by PI staining based flow cytometry analysis (reference value: 54.05%). It is filed as functional.
Experiment [14] deals with MV4-11. The experiment can be described thus: Induction of cell cycle arrest in human MV4-11 cells assessed as accumulation of cells at S phase at 0.02 uM incubated for 16 hrs by PI staining based flow cytometry analysis (reference value: 26.16%). Type of experiment: functional.
Experiment [15] concerns the target Receptor-type tyrosine-protein kinase FLT3 (Homo sapiens) (UniProt P36888). The experiment can be described thus: Inhibition of human FLT3 assessed as residual activity at 100 nM relative to control.
Experiment [16] relates to MV4-11. The experiment can be described thus: Induction of cell cycle arrest in human MV4-11 cells assessed as accumulation of cells at subG1 phase at 2.5 uM incubated for 16 hrs by PI staining based flow cytometry analysis (reference value: 10.51%). It is filed as functional.
Experiment [17] relates to Receptor-type tyrosine-protein kinase FLT3 (Homo sapiens), P36888 [UNDEFINED MUTATION]. The experiment can be described thus: Inhibition of FLT3 in human MV4-11 cells harboring FLT3-ITD mutation assessed as reduction in ERK1/2 phosphorylation at T202/Y204 residue at 0.004 to 2.5 uM incubated for 16 hrs by immunoblot analysis. Type of experiment: cell-based. As to conditions: dose 0.004-2.5 µM.

Experiment [18] concerns MV4-11. The experiment can be described thus: Downregulation of MCL-1 gene expression in human MV4-11 cells incubated for 4 hrs by qRT-PCR analysis. Type of experiment: functional, cell-based. As to conditions: dose 0.004-2.5 µM.
The test system of experiment [19] is MV4-11. The experiment can be described thus: Induction of cell cycle arrest in CRBN-deficient human MV4-11 cells assessed as accumulation of cells at G1 phase at 2.5 uM incubated for 16 hrs by PI staining based flow cytometry analysis (reference value: 54.05%). It is filed as functional.
For experiment [20], the system named is Kasumi 1. The experiment can be described thus: Antiproliferative activity against human Kasumi 1 cells assessed as cell growth inhibition incubated for 72 hrs by resazurin dye based fluorescence analysis. Type of experiment: functional.
The subject of experiment [21] is MV4-11. The experiment can be described thus: Downregulation of Myc gene expression in human MV4-11 cells incubated for 4 hrs by qRT-PCR analysis. The settings on record: dose 0.004-2.5 µM. Type of experiment: functional, cell-based.
Experiment [22] addresses Protein cereblon/Receptor-type tyrosine-protein kinase FLT3 (Homo sapiens) (UniProt P36888+Q96SW2). The experiment can be described thus: PROTAC activity at CRBN/FLT3 in human MV4-11 cells at 0.1 to 0.5 uM preincubated for 90 mins with MG132 followed by compound addition and further incubated for 16 hrs by immunoblot analysis. Type of experiment: cell-based. The settings on record: dose 0.1-0.5 µM.

The subject of experiment [23] is MV4-11. The experiment can be described thus: Induction of cell cycle arrest in human MV4-11 cells assessed as accumulation of cells at G2/M phase at 0.1 uM incubated for 16 hrs by PI staining based flow cytometry analysis (reference value: 10.86%). Type of experiment: functional.

As a reminder, the GI50 is the concentration at which growth is held to half of that of the control.

Chain of Protein cereblon/Cyclin-dependent kinase 9 (Homo sapiens) (P50750 whole entry, looked up): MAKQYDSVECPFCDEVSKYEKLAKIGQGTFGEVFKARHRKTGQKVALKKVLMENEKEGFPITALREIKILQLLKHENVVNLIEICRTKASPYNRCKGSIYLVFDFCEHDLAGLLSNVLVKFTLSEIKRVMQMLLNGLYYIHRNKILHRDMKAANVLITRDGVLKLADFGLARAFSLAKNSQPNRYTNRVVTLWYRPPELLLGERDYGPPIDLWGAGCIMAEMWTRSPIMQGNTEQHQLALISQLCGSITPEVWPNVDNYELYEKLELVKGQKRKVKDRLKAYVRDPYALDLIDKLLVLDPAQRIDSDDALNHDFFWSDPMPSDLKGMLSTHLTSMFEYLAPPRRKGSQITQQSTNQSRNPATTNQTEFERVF
Chain of Protein cereblon/Cyclin-dependent kinase 9 (Homo sapiens) (Q96SW2 whole entry, looked up): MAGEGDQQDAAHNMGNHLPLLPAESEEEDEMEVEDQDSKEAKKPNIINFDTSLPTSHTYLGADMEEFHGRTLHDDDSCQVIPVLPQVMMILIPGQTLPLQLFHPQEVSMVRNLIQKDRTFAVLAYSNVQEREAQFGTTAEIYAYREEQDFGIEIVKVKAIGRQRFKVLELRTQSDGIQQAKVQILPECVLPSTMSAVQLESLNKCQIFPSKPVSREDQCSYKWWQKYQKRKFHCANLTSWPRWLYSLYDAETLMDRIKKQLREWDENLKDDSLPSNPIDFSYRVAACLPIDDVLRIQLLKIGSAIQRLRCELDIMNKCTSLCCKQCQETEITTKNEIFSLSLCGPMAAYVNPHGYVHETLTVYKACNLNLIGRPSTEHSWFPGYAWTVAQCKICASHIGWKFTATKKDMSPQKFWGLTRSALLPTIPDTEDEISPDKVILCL
Chain of Protein cereblon/Receptor-type tyrosine-protein kinase FLT3 (Homo sapiens) (P36888 27-993 limits assumed): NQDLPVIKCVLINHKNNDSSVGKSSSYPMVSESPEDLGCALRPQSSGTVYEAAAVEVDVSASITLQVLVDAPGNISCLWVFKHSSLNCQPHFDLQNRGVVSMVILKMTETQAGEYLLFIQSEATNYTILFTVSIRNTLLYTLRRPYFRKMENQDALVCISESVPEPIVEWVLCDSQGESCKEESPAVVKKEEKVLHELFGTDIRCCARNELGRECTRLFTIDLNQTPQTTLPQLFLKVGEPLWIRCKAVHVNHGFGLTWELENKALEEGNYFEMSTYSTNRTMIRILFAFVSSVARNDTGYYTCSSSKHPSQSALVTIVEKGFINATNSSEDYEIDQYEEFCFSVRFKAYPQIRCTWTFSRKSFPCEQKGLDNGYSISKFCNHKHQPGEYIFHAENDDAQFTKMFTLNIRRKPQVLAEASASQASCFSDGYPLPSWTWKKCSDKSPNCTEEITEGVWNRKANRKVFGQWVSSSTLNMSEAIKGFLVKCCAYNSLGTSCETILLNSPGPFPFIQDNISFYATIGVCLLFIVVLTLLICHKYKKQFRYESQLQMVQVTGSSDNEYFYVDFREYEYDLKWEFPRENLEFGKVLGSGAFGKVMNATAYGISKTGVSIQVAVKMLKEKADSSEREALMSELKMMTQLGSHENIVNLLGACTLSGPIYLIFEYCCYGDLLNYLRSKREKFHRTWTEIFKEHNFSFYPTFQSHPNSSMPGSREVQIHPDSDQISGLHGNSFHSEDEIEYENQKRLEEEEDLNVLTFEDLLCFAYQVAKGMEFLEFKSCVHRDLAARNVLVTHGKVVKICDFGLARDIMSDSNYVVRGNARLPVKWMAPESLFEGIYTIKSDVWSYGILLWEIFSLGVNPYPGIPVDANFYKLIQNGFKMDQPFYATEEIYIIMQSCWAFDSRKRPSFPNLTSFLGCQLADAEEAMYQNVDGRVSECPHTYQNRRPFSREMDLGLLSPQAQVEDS
Chain of Protein cereblon/Receptor-type tyrosine-protein kinase FLT3 (Homo sapiens) (Q96SW2 whole entry partner): as the sequence (Q96SW2 whole entry, looked up) above
Chain of Receptor-type tyrosine-protein kinase FLT3 (Homo sapiens), P36888 [UNDEFINED MUTATION] (P36888 whole entry, looked up, change not shown): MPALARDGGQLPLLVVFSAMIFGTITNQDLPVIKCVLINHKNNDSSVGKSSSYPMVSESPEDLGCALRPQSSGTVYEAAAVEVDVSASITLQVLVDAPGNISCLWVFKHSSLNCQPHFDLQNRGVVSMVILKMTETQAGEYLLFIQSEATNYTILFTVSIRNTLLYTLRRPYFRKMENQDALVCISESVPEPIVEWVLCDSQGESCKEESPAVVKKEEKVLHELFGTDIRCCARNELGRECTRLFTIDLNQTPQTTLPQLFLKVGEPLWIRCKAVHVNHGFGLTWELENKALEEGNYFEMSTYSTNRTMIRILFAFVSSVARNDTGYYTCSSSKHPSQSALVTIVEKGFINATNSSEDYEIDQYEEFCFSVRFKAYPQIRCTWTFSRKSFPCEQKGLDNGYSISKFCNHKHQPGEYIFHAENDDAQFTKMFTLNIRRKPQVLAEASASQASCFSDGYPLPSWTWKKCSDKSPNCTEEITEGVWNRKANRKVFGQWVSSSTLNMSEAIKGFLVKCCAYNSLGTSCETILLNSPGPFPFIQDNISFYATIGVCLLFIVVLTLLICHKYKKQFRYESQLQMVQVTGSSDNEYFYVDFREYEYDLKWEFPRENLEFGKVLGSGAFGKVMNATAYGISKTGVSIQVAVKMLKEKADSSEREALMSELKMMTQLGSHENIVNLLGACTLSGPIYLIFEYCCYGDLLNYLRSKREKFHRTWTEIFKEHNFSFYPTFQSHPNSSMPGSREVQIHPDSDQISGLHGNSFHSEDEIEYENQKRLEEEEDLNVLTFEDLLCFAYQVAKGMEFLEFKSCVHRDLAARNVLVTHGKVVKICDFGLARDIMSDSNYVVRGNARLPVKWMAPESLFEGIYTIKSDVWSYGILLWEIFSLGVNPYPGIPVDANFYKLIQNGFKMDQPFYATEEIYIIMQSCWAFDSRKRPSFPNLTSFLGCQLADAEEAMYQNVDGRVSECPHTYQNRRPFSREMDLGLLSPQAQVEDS
Chain of Receptor-type tyrosine-protein kinase FLT3 (Homo sapiens) (P36888 whole entry): as the sequence (P36888 whole entry, looked up, change not shown) above

As to `NC1CCC(Nc2nc(Nc3ccc(N4CCN(CCOCCOCCNC(=O)CNc5cccc6c5C(=O)N(C5CCC(=O)NC5=O)C6=O)CC4)cc3)c3ncn(C4CCCC4)c3n2)CC1` (stereo not drawn), the Activity in experiment [1] was 7.79%; in experiment [4], 21.07%; in [5], 57.33%; in [6], “Dose-Dependent Effect”; in experiment [7], 76.96%; in experiment [8], “Dose-Dependent Effect”. Also, the Activity in experiment [9] was 12.68%; in experiment [11] it was 3.38%; in experiment [13] it was 63.08%; in experiment [14], 12.41%; in [15], 2%; in [16] it was 79.82%. Moreover, the Activity result in [18] was “Dose-Dependent Effect”; in [19], 89.4%; in [21], “Dose-Dependent Effect”; in [23], 3.96%. In addition, the GI50 in experiment [2] is 119 nM; in experiment [10] it was more than 10000 nM; in experiment [12], 47 nM; in experiment [20] it was more than 10000 nM. The outcome in [3] and in experiment [22] was inactive. The inhibition result in experiment [17] is “Active”.
